Assay results taken from PMC9862597, “Anti-Colorectal Cancer Effects of a Novel Camptothecin Derivative PCC0208037 In Vitro and In Vivo” (Pharmaceuticals, 2022).

Assays:
[1] = Pharmacokinetic study, single intravenous dose; details: for AUCinf / AUClast: n = 3
Method: Blood samples were collected at 0.083 h, 0.25 h, 0.5 h, 1 h, 2 h, 4 h, 8 h, and 12 h after administration. Plasma was prepared after centrifugation at 6000× g for 5 min and then stored at −20 °C for further analysis.

LS180 xenograft tumor = test: Subcutaneous LS180 xenograft model; type: in vivo, nude mice; details: PCC0208037 5, 10, 20 mg/kg; CPT-11 10 mg/kg; i.v. once every 3 days
Method: To establish xenograft tumor models, RPMI 1640 and Matrigel were mixed at a 1:1 ratio. Colorectal cancer cells (LS180: 5 × 10^6 cells) were added to 0.1 mL of the mixture, and male nude mice were subcutaneously injected with colorectal cancer cells on the right side. […] Tumor volume and animal weight were measured every 3 days and continued until the end of the experiments. All mice were euthanized by cervical dislocation at the end of the experiment, and the xenograft tumors were removed and weighed.
Figure 8 Anti-tumor effect of PCC0208037 in the LS180 xenograft tumor model. (A) Representative tumors removed after the last treatment in each treatment group. (B) Body weight gain curves of mice bearing an LS180 xenograft tumor. (C) Tumor weights in the different groups of mice after 15 d of treatment.

HCT116 cells = test: MTT cell viability assay, HCT116; type: cell-based; details: Homo sapiens, HCT-116; HCT116, MTT, 72 h, n = 3; read-out: IC50
Method: (§1) Cell viability was assessed using the MTT assay, as previously reported. Briefly, colorectal cancer cells (LS180, HCT116, CT-26, and HT-29 cells) were plated onto 96-well plates at 3000 cells per well and incubated overnight. […] Control cells were treated with DMSO at a final concentration of 0.1%. Cells were cultured with the compounds or medium for 72 h. The cells were then treated with MTT. The medium was then decanted, and DMSO was added and shaken until the color reaction was complete. The […] were read using a Molecular Devices SpectraMax M5 (San Jose, CA, USA) at OD570 nm. The half maximal inhibitory concentration (IC50) was calculated.

HT-29 cells = test: MTT cell viability assay, HT-29; type: cell-based; details: Homo sapiens; HT-29, MTT, 72 h, n = 3
Method: as §1

[2] = PCC0208037- and CPT-11-induced toxicity in mice; details: 50 mg/kg/day i.p. for four days
LS180 cells = test: MTT cell viability assay, LS180; type: cell-based; details: Homo sapiens; LS180, MTT, 72 h, n = 3; read-out: IC50
Method: as §1

CT-26 cells = test: MTT cell viability assay, CT-26; type: cell-based; details: Mus musculus, CT26; CT-26, MTT, 72 h, n = 3
Method: as §1

recombinant Topo I = target: T1, recombinant Topo I (Homo sapiens, UniProt P11387); test: Topoisomerase I activity assay (DNA relaxation); type: biochemical; details: PCC0208037 100 and 10 nmol/L, SN-38 100 nmol/L, CPT-11 100 nmol/L; 30 min, 37 °C
T1 construct: purchased TopoGEN, Inc (Buena Vista, CO, USA) TG1018
T1 sequence (P11387 1-765): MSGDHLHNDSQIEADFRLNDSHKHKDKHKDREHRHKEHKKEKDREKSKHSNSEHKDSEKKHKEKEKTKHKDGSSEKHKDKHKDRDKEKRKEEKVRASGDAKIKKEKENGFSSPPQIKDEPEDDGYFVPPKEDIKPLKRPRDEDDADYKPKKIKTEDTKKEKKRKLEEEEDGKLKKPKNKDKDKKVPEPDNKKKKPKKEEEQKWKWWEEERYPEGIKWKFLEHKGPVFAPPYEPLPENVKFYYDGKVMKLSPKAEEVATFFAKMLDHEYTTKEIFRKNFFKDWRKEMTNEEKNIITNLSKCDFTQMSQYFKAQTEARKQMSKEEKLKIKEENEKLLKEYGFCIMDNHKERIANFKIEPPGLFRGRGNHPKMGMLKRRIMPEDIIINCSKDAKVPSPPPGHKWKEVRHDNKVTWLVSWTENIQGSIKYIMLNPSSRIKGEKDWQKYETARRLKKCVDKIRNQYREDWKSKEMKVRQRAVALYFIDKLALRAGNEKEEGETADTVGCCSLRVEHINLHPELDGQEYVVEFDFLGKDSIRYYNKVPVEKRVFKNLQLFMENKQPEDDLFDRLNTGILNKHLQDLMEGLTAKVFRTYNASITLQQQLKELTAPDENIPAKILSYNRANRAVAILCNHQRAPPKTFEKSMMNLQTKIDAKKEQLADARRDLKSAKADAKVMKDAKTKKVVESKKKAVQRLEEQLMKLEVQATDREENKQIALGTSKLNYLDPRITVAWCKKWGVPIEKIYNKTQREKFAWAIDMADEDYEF
Method: To determine whether PCC0208037 inhibited Topo I activity, a DNA relaxation assay was conducted. In this assay, supercoiled plasmid DNA was relaxed and nicked by recombinant Topo I, while no nicked DNA would be found when the Topo I enzyme was inhibited.
A Topoisomerase I Drug Screening Kit was used to detect the inhibitory activity of PCC0208037 against Topo I in the cell-free system. 1 IU Topo I and 250 ng of supercoiled plasmid DNA were pre-incubated with DMSO, PCC0208037 (100 nmol/L and 10 nmol/L), SN-38(100 nmol/L), or CPT (100 nmol/L) in a reaction buffer with a final volume of 20 μL and incubated for 30 min at 37 °C; then, the reaction was stopped by the addition of 2 ul of 10% SDS. Then, proteinase K was added to 50 ug/mL, incubated for 15 min at 37 °C, and 0.1 vol. of a loading buffer (0.25% bromophenol blue, 50% glycerol) was added. The supercoiled, relaxed, or nicked DNA was separated by 1% agarose gel in a 1 TAE (Tris-Acetate-EDTA) buffer. Ethidium bromide-stained agarose gel was photographed using Gel Doc XR.
Figure 4 Inhibition of Topo I activity by PCC0208037. […] Plasmid DNA was separated by an agarose gel and stained with ethidium bromide.

[3] = BALB/c, mouse, plasma, iv, 10 mg/kg
[4] = CPT-11 in plasma, 10 mg/kg CPT-11 i.v.
[5] = metabolite SN-38 in plasma after 10 mg/kg CPT-11 i.v.
[6] = metabolite SN-38 in plasma after 10.65 mg/kg PCC0208037 i.v.

Row | AUCinf [1, 5] [H * ng/mL] | AUClast [1, 5] [H * ng/mL] | AUCinf [1, 6] [H * ng/mL] | AUClast [1, 6] [H * ng/mL] | inhibition of Topo I activity (supercoiled plasmid DNA relaxation) (recombinant Topo I) | SMILES | Cmax [1, 3] [µg/mL] | Tmax [1, 3] [h] | AUCinf [1, 4] [H * ng/mL] | AUClast [1, 4] [H * ng/mL] | effect on body weight of tumor-bearing mice (LS180 xenograft tumor) | IC50 (HCT116 cells) [µM] | IC50 (HT-29 cells) [µM] | colorectal tissue histomorphological examination (H&E) ([2]; colon after 7 days) | diarrhea score ([2]; later stage of study, p < 0.05 on 7th day) | mortality ([2]; seven-day observation) | recovery of body weight and food intake decrease ([2]; seven-day observation) | IC50 (LS180 cells) [µM] | IC50 (CT-26 cells) [µM]
1 |  |  |  |  |  | CCc1c2c(nc3ccc(OC(=O)N4CCC(N5CCCCC5)CC4)cc13)-c1cc3c(c(=O)n1C2)COC(=O)[C@]3(O)CC [CPT-11, Irinotecan] | 0.481 ± 0.112 | 3.24 ± 2.19 | 393.1 ± 64.4 | 360.5 ±52.9 | significant reduction in body weight | > 50 | > 50 | extensive colorectal tissue damage | higher in the CPT-11-treated mice than in the PCC0208037-treated mice | No animal died | no apparent trend of recovery was observed | 3.17 ± 0.58 | > 50
2 | 431.5 ± 62.5 | 394.6 ± 46.32 | 919.7 ± 176.1 | 905.5 ± 173.7 | Topo I activity was inhibited | CCc1c2c(nc3ccc(O)cc13)-c1cc3c(c(=O)n1C2)COC(=O)[C@]3(O)CC [SN-38] |  |  |  |  |  | 3.58 ± 0.21 | 0.35 ± 0.02 |  |  |  |  | 0.12 ± 0.01 | 0.44 ± 0.66
